Consider twelve compounds from patent US11339130B1 (Blade Therapeutics, Inc., priority 2016, dated 2022).

Test [1] addresses T1, Human Calpain 2/NS1 (Homo sapiens, UniProt P17655).
T1 sequence (P17655 1-700): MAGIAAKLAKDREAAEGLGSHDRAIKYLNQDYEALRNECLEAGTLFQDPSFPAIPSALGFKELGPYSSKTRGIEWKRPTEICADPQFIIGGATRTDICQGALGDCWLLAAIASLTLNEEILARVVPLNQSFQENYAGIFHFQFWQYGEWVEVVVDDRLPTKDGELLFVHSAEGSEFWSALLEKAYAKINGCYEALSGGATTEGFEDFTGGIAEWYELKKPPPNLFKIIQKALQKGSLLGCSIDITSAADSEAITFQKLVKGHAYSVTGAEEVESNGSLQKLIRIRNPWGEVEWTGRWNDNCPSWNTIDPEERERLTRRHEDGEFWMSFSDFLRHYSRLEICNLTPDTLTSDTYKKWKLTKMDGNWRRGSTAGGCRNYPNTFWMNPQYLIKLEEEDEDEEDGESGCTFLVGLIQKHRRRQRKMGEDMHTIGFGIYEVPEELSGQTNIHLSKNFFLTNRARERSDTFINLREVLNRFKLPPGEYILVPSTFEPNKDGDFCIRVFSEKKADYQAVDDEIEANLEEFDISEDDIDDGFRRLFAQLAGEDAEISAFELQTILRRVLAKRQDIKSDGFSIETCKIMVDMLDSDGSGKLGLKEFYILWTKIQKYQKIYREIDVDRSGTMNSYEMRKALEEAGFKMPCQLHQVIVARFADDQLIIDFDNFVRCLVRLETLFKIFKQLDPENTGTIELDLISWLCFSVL
T1 sequence (P04632 1-268 partner): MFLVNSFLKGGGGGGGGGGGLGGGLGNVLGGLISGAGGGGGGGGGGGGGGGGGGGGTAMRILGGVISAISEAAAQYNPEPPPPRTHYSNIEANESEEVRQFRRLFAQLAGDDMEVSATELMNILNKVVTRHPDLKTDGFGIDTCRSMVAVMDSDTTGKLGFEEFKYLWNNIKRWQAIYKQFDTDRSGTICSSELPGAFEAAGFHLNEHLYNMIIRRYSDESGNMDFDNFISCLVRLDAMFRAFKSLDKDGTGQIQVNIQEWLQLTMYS
As to the kind of experiment: Calpain inhibition continuous fluorescence (FRET) assay, Human Calpain 2/NS1. The class given is biochemical. Conditions: read-out: Human Calpain 2/NS1 IC50. The method in brief:
(§1)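 Continuous FRET read (ex 490/em 520 nm, 10 min) of calpain 1, 2 or 9 cleaving an internally quenched 5-FAM peptide, triggered by substrate with CaCl2 after enzyme–inhibitor incubation at ambient 25 °C, pH 7.5 Tris/NaCl/DTT buffer. IC50 from initial rates (1-5 min) via 4-parameter fit.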

Test [2] addresses T2, Human Calpain 1/NS1 (Homo sapiens, UniProt P07384).
T2 sequence (P07384 1-714): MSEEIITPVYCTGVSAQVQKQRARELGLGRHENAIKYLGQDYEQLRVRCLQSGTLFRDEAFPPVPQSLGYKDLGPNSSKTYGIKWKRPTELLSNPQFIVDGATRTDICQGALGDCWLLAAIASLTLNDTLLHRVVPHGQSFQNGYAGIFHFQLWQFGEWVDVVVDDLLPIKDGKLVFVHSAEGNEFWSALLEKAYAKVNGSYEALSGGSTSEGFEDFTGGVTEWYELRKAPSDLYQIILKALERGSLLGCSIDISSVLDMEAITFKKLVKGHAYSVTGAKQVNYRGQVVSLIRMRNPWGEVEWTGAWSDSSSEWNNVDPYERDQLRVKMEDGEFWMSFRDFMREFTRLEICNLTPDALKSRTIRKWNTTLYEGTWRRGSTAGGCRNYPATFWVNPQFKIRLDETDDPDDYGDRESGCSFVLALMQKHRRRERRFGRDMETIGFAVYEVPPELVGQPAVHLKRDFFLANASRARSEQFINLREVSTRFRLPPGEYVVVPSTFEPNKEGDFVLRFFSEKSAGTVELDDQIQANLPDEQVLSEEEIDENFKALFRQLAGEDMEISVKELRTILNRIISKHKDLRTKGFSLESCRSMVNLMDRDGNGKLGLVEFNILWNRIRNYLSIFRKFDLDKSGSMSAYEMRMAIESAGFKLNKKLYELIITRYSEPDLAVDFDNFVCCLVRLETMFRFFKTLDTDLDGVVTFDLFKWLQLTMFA
T2 sequence (P04632 1-268 partner): T1 sequence (P04632 1-268 partner)
As to the kind of experiment: Calpain inhibition continuous fluorescence (FRET) assay, Human Calpain 1/NS1. The class given is biochemical. To be noted: read-out: Human Calpain 1/NS1 IC50. The method in brief: as §1

In test [3] the test system is Calpain activity in SH-SY5Y cells. The experiment in a line: SH-SY5Y + AMC fluorescence assay (Suc-LLVY-AMC substrate). The format is cell-based. Conditions: read-out: SH-SY5Y + AMC IC50.
In test [4] the test system is Calpain activity in SH-SY5Y cells (SBDP-150). As to the kind of experiment: SH-SY5Y Spectrin western blot assay (SBDP-150 breakdown product, A23187-induced). Conditions: Homo sapiens, SH-SY5Y cells, read-out: SH-SY5Y Spectrin IC50. The class given is cell-based. A general note: In western blotting, separated proteins are transferred to a membrane and probed.
Test [5] addresses T3, Human Calpain 9/NS1 (Homo sapiens, UniProt O14815).
T3 sequence (O14815 1-690): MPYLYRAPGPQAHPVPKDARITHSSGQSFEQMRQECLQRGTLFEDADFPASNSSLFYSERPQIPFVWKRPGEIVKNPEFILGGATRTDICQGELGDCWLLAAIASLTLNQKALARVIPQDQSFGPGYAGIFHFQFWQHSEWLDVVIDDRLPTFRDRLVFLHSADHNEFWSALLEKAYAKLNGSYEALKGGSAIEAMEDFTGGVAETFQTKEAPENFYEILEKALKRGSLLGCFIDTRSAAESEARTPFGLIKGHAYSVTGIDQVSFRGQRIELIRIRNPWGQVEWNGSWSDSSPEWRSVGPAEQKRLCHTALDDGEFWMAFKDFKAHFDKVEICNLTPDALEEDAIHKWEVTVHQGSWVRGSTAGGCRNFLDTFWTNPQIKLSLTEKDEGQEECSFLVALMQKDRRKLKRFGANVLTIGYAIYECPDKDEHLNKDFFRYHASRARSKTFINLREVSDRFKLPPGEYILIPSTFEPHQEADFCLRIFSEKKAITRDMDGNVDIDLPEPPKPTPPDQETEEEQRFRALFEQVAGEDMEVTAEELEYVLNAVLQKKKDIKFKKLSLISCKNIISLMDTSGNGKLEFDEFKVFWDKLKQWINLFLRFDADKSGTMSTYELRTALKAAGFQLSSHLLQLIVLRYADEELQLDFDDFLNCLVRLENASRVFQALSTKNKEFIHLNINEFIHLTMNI
T3 sequence (P04632 1-268 partner): T1 sequence (P04632 1-268 partner)
The experiment in a line: Calpain inhibition continuous fluorescence (FRET) assay, Human Calpain 9/NS1. Conditions: read-out: Human Calpain 9/NS1 IC50. The format is biochemical. The method in brief: as §1

Setting [6] is: Column D, A23187-induced SBDP-150.
[7] abbreviates: A23187-induced SBDP-150, western blot.

SMILES strings stand for the structures. Where two headings read alike, the source gives them in different places.

For `Cc1nc(-c2ccccc2)c(C(=O)N[C@@H](CC(C)C)C(=O)C(N)=O)o1` [Compound 253, (S)—N-(1-amino-5-methyl-1,2-dioxohexan-3-yl)-2-methyl-4-phenyloxazole-5-carboxamide], the IC50 was less than 3 µM in test [1] (Column B); less than 3 µM in test [2] (Column A); greater than 25 µM in test [3] (Column E); 10 to 25 µM in test [4] (setting [6]); less than 3 µM in test [5] (Column C).

For the compound `Cc1ccc(-c2nn(C)cc2C(=O)NC(Cc2ccccc2)C(=O)C(N)=O)o1` (stereo not drawn) [Compound 498, N-(4-amino-3,4-dioxo-1-phenylbutan-2-yl)-1-methyl-3-(5-methylfuran-2-yl)-1H-pyrazole-4-carboxamide], the IC50 in test [1] is less than 3 µM; in test [2], less than 3 µM; in test [3], 10 to 25 µM; in test [4] (setting [7]), greater than 25 µM; in test [5], less than 3 µM.

Take `Cn1cc(C(=O)N[C@@H](Cc2ccccc2)C(=O)C(N)=O)c(-c2cccc(Cl)c2)n1` [Compound 187, (S)—N-(4-amino-3,4-dioxo-1-phenylbutan-2-yl)-3-(3-chlorophenyl)-1-methyl-1H-pyrazole-4-carboxamide]: the IC50 in test [1] (Column B) was less than 3 µM; in test [2] (Column A) it was less than 3 µM; in test [3] (Column E) it was greater than 25 µM; in test [4] (setting [6]) it was 10 to 25 µM; in test [5] (Column C) it was less than 3 µM.

Take `Cc1cc(C(=O)N[C@@H](Cc2ccccc2)C(=O)CF)n(-c2ccccn2)n1` [Compound 478, (S)—N-(4-fluoro-3-oxo-1-phenylbutan-2-yl)-3-methyl-1-(pyridin-2-yl)-1H-pyrazole-5-carboxamide]: the IC50 in test [1] is less than 3 µM; in test [2], less than 3 µM; in test [3] it was greater than 25 µM; in test [4] (setting [7]) it was greater than 25 µM; in test [5] it was 3 to 10 µM.

For `Cc1nc(-c2ccccc2)c(C(=O)N[C@@H](CCc2ccccc2)C(=O)C(N)=O)o1` [Compound 386, (S)—N-(1-amino-1,2-dioxo-5-phenylpentan-3-yl)-2-methyl-4-phenyloxazole-5-carboxamide], the IC50 is less than 3 µM in test [1]; less than 3 µM in test [2]; 10 to 25 µM in test [3]; greater than 25 µM in test [4] (setting [7]); less than 3 µM in test [5].

As for `Cn1cc(C(=O)NC(Cc2ccccc2)C(=O)C(N)=O)c(-c2c(F)cccc2F)n1` (stereo not drawn) [Compound 486, N-(4-amino-3,4-dioxo-1-phenylbutan-2-yl)-3-(2,6-difluorophenyl)-1-methyl-1H-pyrazole-4-carboxamide], the IC50 was less than 3 µM in test [1]; less than 3 µM in test [2]; less than 10 µM in test [3]; 10 to 25 µM in test [4] (setting [7]); less than 3 µM in test [5].

With `Cc1ccc(C)c(-c2nn(C(F)F)cc2C(=O)NC(Cc2ccccc2)C(=O)C(N)=O)c1` (stereo not drawn) [Compound 524, N-(4-amino-3,4-dioxo-1-phenylbutan-2-yl)-1-(difluoromethyl)-3-(2,5-dimethylphenyl)-1H-pyrazole-4-carboxamide], the IC50 is less than 3 µM in test [1]; less than 3 µM in test [2]; less than 10 µM in test [3]; 10 to 25 µM in test [4] (setting [7]); less than 3 µM in test [5].

For the compound `Cc1cccc(-c2nn(C)cc2C(=O)N[C@@H](Cc2ccccc2)C(=O)C(N)=O)c1` [Compound 163, (S)—N-(4-amino-3,4-dioxo-1-phenylbutan-2-yl)-1-methyl-3-(M-tolyl)-1H-pyrazole-4-carboxamide], the IC50 in test [1] (Column B) was less than 3 µM; in test [2] (Column A), less than 3 µM; in test [3] (Column E) it was 10 to 25 µM; in test [4] (setting [6]), 10 to 25 µM; in test [5] (Column C) it was less than 3 µM.

Turning to `Cn1cc(C(=O)N[C@@H](Cc2ccccc2)C(=O)C(N)=O)c(-c2cccc(C3CC3)c2)n1` [Compound 186, (S)—N-(4-amino-3,4-dioxo-1-phenylbutan-2-yl)-3-(3-cyclopropylphenyl)-1-methyl-1H-pyrazole-4-carboxamide], the IC50 in test [1] (Column B) was 3 to 10 µM; in test [2] (Column A), 3 to 10 µM; in test [3] (Column E) it was greater than 25 µM; in test [4] (setting [6]), greater than 25 µM; in test [5] (Column C), 3 to 10 µM.

With `Cc1cc(C(=O)N[C@@H](Cc2ccccc2)C(=O)C(N)=O)n(-c2cccc(-c3ccccc3)c2)n1` [Compound 16, (S)-1-([1,1′-biphenyl]-3-yl)-N-(4-amino-3,4-dioxo-1-phenylbutan-2-yl)-3-methyl-1H-pyrazole-5-carboxamide], the IC50 in test [1] (Column B) was less than 3 µM; in test [2] (Column A), less than 3 µM; in test [3] (Column E) it was 10 to 25 µM; in test [4] (setting [6]) it was 10 to 25 µM; in test [5] (Column C), less than 3 µM.

Turning to `Cn1cc(C(=O)N[C@@H](Cc2ccccc2)C(=O)C(N)=O)c(-c2cnccn2)n1` [Compound 313, (S)—N-(4-amino-3,4-dioxo-1-phenylbutan-2-yl)-1-methyl-3-(pyrazin-2-yl)-1H-pyrazole-4-carboxamide], the IC50 in test [1] is less than 3 µM; in test [2], less than 3 µM; in test [3] it was greater than 25 µM; in test [4] (setting [7]) it was greater than 25 µM; in test [5], less than 3 µM.

Regarding `Cc1cc(C(=O)N[C@@H](Cc2ccccc2)C(=O)C(N)=O)n(-c2ccnc(Cl)n2)n1` [Compound 246, (S)—N-(4-amino-3,4-dioxo-1-phenylbutan-2-yl)-1-(2-chloropyrimidin-4-yl)-3-methyl-1H-pyrazole-5-carboxamide], the IC50 is less than 3 µM in test [1] (Column B); less than 3 µM in test [2] (Column A); less than 10 µM in test [3] (Column E); 10 to 25 µM in test [4] (setting [6]); less than 3 µM in test [5] (Column C).
